# Results as given in ChEMBL document CHEMBL5154881, “Discovery of First-in-Class TAK1-MKK3 Protein-Protein Interaction (PPI) Inhibitor (R)-STU104 for the Treatment of Ulcerative Colitis through Modulating TNF-α Production” (J Med Chem, 2022).
# pIC50: −log10 of the molar value. Activity calls are given as the source filed them. The calls are words filed in the database; no cut-off is given here.
# How the values were obtained:
# RAW264.7 [1] = assay: Inhibition of LPS-induced TNFalpha production in mouse RAW264.7 cells at 50 uM preincubated for 2 hrs followed by LPS treatment for 24 hrs by RT-qPCR analysis relative to control; assay type: functional; settings: time 26 hrs
# RAW264.7 [2] = assay: Inhibition of LPS-induced TNFalpha production in mouse RAW264.7 cells preincubated for 2 hrs followed by LPS treatment for 24 hrs by RT-qPCR analysis; assay type: functional, cell-based
# Peritoneal macrophage = assay: Inhibition of LPS-induced TNFalpha production in mouse peritoneal macrophage at 2.6 uM incubated overnight by immunoassay relative to control; assay type: functional
# Mus musculus [3] = assay: Antiinflammatory activity against DSS-induced C57BL/6 mouse model of acute ulcerative colitis assessed as inhibition ratio of IL-1beta protein expression at 50 mg/kg, IG via gavage measured after 7 days by ELISA relative to control; assay type: functional; design: scale not given: the % may be the effect or the level left; settings: time 7 day
# Mus musculus [4] = assay: Antiinflammatory activity against DSS-induced C57BL/6 mouse model of acute ulcerative colitis assessed as inhibition ratio of IL-23 protein expression at 50 mg/kg, IG via gavage measured after 7 days by ELISA relative to control; assay type: functional; design: scale not given: the % may be the effect or the level left; settings: time 7 day
# Mus musculus [5] = assay: Anti-ulcerative colitis activity in IL-10-/- C57BL/6 mouse model of ulcerative colitis assessed as histopathological score recovery ratio at 50 mg/kg, IG via gavage for 8 weeks relative to control; assay type: functional
# Mus musculus [6] = assay: Anti-ulcerative colitis activity in IL-10-/- C57BL/6 mouse ulcerative colitis model assessed as animal survival at 50 mg/kg, IG via gavage for 8 weeks; assay type: functional, organism-based
# Mus musculus [7] = assay: Antiinflammatory activity against IL-10-/- C57BL/6 mouse model of ulcerative colitis assessed as inhibition ratio of IL-1beta mRNA expression in colon tissue at 50 mg/kg, IG via gavage and measured after 8 weeks by RT-qPCR analysis relative to control; assay type: functional; design: scale not given: the % may be the effect or the level left
# Mus musculus [8] = assay: Antiinflammatory activity against IL-10-/- C57BL/6 mouse model of ulcerative colitis assessed as inhibition ratio of IL-23 mRNA expression in colon tissue at 50 mg/kg, IG via gavage and measured after 8 weeks by RT-qPCR analysis relative to control; assay type: functional; design: scale not given: the % may be the effect or the level left
# Mus musculus [9] = assay: Anti-ulcerative colitis activity against DSS-induced ulcerative colitis C57BL/6 mouse model assessed as reduction in DAI score at 50 mg/kg, IG via gavage administered for 7 days and measured everyday (reference value: 4.0); assay type: functional; settings: time 7 day
# Mus musculus [10] = assay: Anti-ulcerative colitis activity in IL-10-/- C57BL/6 mouse model of ulcerative colitis assessed as colon length recovery ratio at 50 mg/kg, IG via gavage for 8 weeks relative to control; assay type: functional
# Mus musculus [11] = assay: Antiinflammatory activity against DSS-induced C57BL/6 mouse model of acute ulcerative colitis assessed as inhibition of IL-23 mRNA expression in colon tissue administered intragastrically via gavage measured after 7 days by RT-qPCR analysis; assay type: functional, organism-based; settings: route ig, time 7.0 day, DDE = dose-dependent effect
# Mus musculus [12] = assay: Anti-ulcerative colitis activity in DSS-induced C57BL/6 mouse ulcerative colitis model assessed as colon length recovery ratio at 50 mg/kg, IG via gavage measured after 7 days relative to control; assay type: functional; settings: time 7 day
# Mus musculus [13] = assay: Antiinflammatory activity against IL-10-/- C57BL/6 mouse model of ulcerative colitis assessed as inhibition ratio of IL-6 mRNA expression in colon tissue at 50 mg/kg, IG via gavage and measured after 8 weeks by RT-qPCR analysis relative to control; assay type: functional; design: scale not given: the % may be the effect or the level left
# Mus musculus [14] = assay: Antiinflammatory activity against DSS-induced C57BL/6 mouse model of acute ulcerative colitis assessed as inhibition ratio of IL-6 protein expression at 50 mg/kg, IG via gavage measured after 7 days by ELISA relative to control; assay type: functional; design: scale not given: the % may be the effect or the level left; settings: time 7 day
# Mus musculus [15] = assay: Antiinflammatory activity against DSS-induced C57BL/6 mouse model of acute ulcerative colitis assessed as inhibition ratio of IL-6 mRNA expression in colon tissue at 50 mg/kg, IG via gavage measured after 7 days by RT-qPCR analysis relative to control; assay type: functional; design: scale not given: the % may be the effect or the level left; settings: time 7 day
# Mus musculus [16] = assay: Antiinflammatory activity against DSS-induced C57BL/6 mouse model of acute ulcerative colitis assessed as inhibition ratio of TNF-alpha protein expression at 50 mg/kg, IG via gavage measured after 7 days by ELISA relative to control; assay type: functional; design: scale not given: the % may be the effect or the level left; settings: time 7 day
# Mus musculus [17] = assay: Antiinflammatory activity against IL-10-/- C57BL/6 mouse model of ulcerative colitis assessed as inhibition ratio of IL-1beta protein expression at 50 mg/kg, IG via gavage and measured after 8 weeks by ELISA relative to control; assay type: functional; design: scale not given: the % may be the effect or the level left
# Mus musculus [18] = assay: Antiinflammatory activity against IL-10-/- C57BL/6 mouse model of ulcerative colitis assessed as inhibition ratio of TNF-alpha mRNA expression in colon tissue at 50 mg/kg, IG via gavage and measured after 8 weeks by RT-qPCR analysis relative to control; assay type: functional; design: scale not given: the % may be the effect or the level left
# Mus musculus [19] = assay: Antiinflammatory activity against IL-10-/- C57BL/6 mouse model of ulcerative colitis assessed as inhibition ratio of TNF-alpha protein expression at 50 mg/kg, IG via gavage and measured after 8 weeks by ELISA relative to control; assay type: functional; design: scale not given: the % may be the effect or the level left
# Mus musculus [20] = assay: Anti-ulcerative colitis activity in DSS-induced C57BL/6 mouse ulcerative colitis model assessed as histopathological score recovery ratio at 50 mg/kg, IG via gavage measured after 7 days by H and E staining method relative to control; assay type: functional; settings: time 7 day
# Mus musculus [21] = assay: Antiinflammatory activity against DSS-induced C57BL/6 mouse model of acute ulcerative colitis assessed as inhibition ratio of TNF-alpha mRNA expression in colon tissue at 50 mg/kg, IG via gavage measured after 7 days by RT-qPCR analysis relative to control; assay type: functional; design: scale not given: the % may be the effect or the level left; settings: time 7 day
# Mus musculus [22] = assay: Anti-ulcerative colitis activity against DSS-induced ulcerative colitis C57BL/6 mouse model assessed as reduction in DAI recovery score ratio at 50 mg/kg, IG via gavage administered for 7 days and measured everyday relative to control; assay type: functional; design: scale not given: the % may be the effect or the level left; settings: time 7 day
# Mus musculus [23] = assay: Antiinflammatory activity against IL-10-/- C57BL/6 mouse model of ulcerative colitis assessed as inhibition ratio of IL-6 protein expression at 50 mg/kg, IG via gavage and measured after 8 weeks by ELISA relative to control; assay type: functional; design: scale not given: the % may be the effect or the level left
# Mus musculus [24] = assay: Antiinflammatory activity against IL-10-/- C57BL/6 mouse model of ulcerative colitis assessed as inhibition ratio of IL-23 protein expression at 50 mg/kg, IG via gavage and measured after 8 weeks by ELISA relative to control; assay type: functional; design: scale not given: the % may be the effect or the level left
# Mus musculus [25] = assay: Anti-ulcerative colitis activity against DSS-induced ulcerative colitis C57BL/6 mouse model assessed as body weight recovery rate at 50 mg/kg, IG via gavage administered for 7 days and measured everyday relative to control; assay type: functional; settings: time 7 day
compound,measurement,setting,value
COc1ccc2c(c1)C(=O)CC2c1ccc(F)cc1 (stereo not given),inhibition at 50 µM,RAW264.7 [1],6.5%
COc1cc(OC)c2c(c1)C(=O)CC2c1ccc2cc(OC)ccc2c1 (stereo not given),pIC50,RAW264.7 [2],4.29
same,inhibition at 50 µM,RAW264.7 [1],4.6%
COc1cc(OC)c2c(c1)C(=O)CC2c1ccc(Br)cc1 (stereo not given),inhibition at 50 µM,RAW264.7 [1],-88.5%
COc1cc(OC)c2c(c1)C(=O)CC2c1ccc(OC(C)(F)F)cc1 (stereo not given),pIC50,RAW264.7 [2],5.35
same,inhibition at 50 µM,RAW264.7 [1],76.5%
COc1cc2c(cc1OC)C(c1ccc(C)cc1)CC2=O (stereo not given),pIC50,RAW264.7 [2],4.33
same,inhibition at 50 µM,RAW264.7 [1],55.2%
COc1cc(OC)cc(C2CC(=O)c3cc(OC)ccc32)c1 (stereo not given),pIC50,RAW264.7 [2],5.45
same,inhibition at 50 µM,RAW264.7 [1],0.2%
COc1cc(OC)c2c(c1)C(=O)CC2c1csc2ccccc12 (stereo not given),inhibition at 50 µM,RAW264.7 [1],5.9%
COc1cc(OC)c2c(c1)C(=O)CC2c1ccc(F)cc1 (stereo not given),inhibition at 50 µM,RAW264.7 [1],-4.2%
COc1ccc(C2CC(=O)c3cc(OC)cc(OC)c32)cc1 (stereo not given),pIC50,RAW264.7 [2],5.90
same,inhibition at 50 µM,RAW264.7 [1],82.6%
COc1ccc([C@@H]2CC(=O)c3cc(OC)cc(OC)c32)cc1,pIC50,RAW264.7 [2],< 4.30
COc1cc(C2CC(=O)c3cc(OC)c(OC)c(OC)c32)cc(OC)c1OC (stereo not given),inhibition at 2.6 µM,Peritoneal macrophage,55%
Cc1ccc(C2CC(=O)c3cc4c(cc32)OCO4)cc1 (stereo not given),pIC50,RAW264.7 [2],4.36
same,inhibition at 50 µM,RAW264.7 [1],66.2%
COc1cc(OC)c2c(c1)C(=O)CC2c1ccc(Cl)cc1 (stereo not given),inhibition at 50 µM,RAW264.7 [1],-98.9%
COc1cc(OC)c2c(c1)C(=O)CC2c1ccc(SC)cc1 (stereo not given),pIC50,RAW264.7 [2],5.41
same,inhibition at 50 µM,RAW264.7 [1],79.8%
COc1cc(OC)c2c(c1)C(=O)CC2c1ccc(OC(F)(F)F)cc1 (stereo not given),inhibition at 50 µM,RAW264.7 [1],4.4%
COc1cc2c(cc1OC)C(c1ccc(F)cc1)CC2=O (stereo not given),inhibition at 50 µM,RAW264.7 [1],80%
COc1cc(OC)c2c(c1)C(=O)CC2c1cccs1 (stereo not given),inhibition at 50 µM,RAW264.7 [1],5.6%
COc1ccc(C2c3c(OC)cc(OC)cc3C(=O)C2c2cc(OC)cc(OC)c2)cc1 (stereo not given),pIC50,RAW264.7 [2],4.34
same,inhibition at 50 µM,RAW264.7 [1],62.3%
COc1cc(OC)c2c(c1)C(=O)CC2c1ccc2c(c1)OCO2 (stereo not given),inhibition at 50 µM,RAW264.7 [1],15.5%
COc1cc(OC)c2c(c1)C(=O)CC2c1ccccc1C (stereo not given),pIC50,RAW264.7 [2],5.40
same,inhibition at 50 µM,RAW264.7 [1],77.6%
O=C1CC(c2ccc(F)cc2)c2cc3c(cc21)OCO3 (stereo not given),inhibition at 50 µM,RAW264.7 [1],5.3%
COc1cc(OC)c2c(c1)C(=O)CC2c1ccc(C)cc1 (stereo not given),pIC50,RAW264.7 [2],4.32
same,inhibition at 50 µM,RAW264.7 [1],49.9%
Nc1ccc(O)c(C(=O)O)c1 [MESALAMINE],Activity,Mus musculus [3],47.3%
same,Activity,Mus musculus [4],27.5%
same,Activity,Mus musculus [5],44.3%
same,Activity,Mus musculus [6],Active
same,Activity,Mus musculus [7],36.9%
same,Activity,Mus musculus [8],54.7%
same,Activity,Mus musculus [9],3
same,Activity,Mus musculus [10],32.4%
same,Activity,Mus musculus [11],Dde
same,Activity,Mus musculus [12],39.4%
same,Activity,Mus musculus [13],46.3%
same,Activity,Mus musculus [14],53.5%
same,Activity,Mus musculus [15],46%
same,Activity,Mus musculus [16],43.2%
same,Activity,Mus musculus [17],44%
same,Activity,Mus musculus [18],30.1%
same,Activity,Mus musculus [19],42.2%
same,Activity,Mus musculus [20],38.3%
same,Activity,Mus musculus [21],48.7%
same,Activity,Mus musculus [22],25%
same,Activity,Mus musculus [23],54.9%
same,Activity,Mus musculus [24],55.7%
same,Activity,Mus musculus [25],38.3%
